Measurements published in ChEMBL document CHEMBL1201862, “PubChem BioAssay data set” (2004).
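All cell lines were grown in 96-well plates and treated with compound for 48 hours. Abbreviation: GI50, concentration required for 50% inhibition of growth.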 The source made the active and inactive calls. Cut-off read from the data, not from the text of the source: active = GI50 up to about 1.1 µM and inactive = higher.

What was measured:
Experiment in all cases: DTP human tumour cell line panel, 48 h
KM12 = tested on: KM12
SNB-75 = tested on: SNB-75
Malme-3M = tested on: Malme-3M
HCT-15 = tested on: HCT-15
SK-MEL-5 = tested on: SK-MEL-5
OVCAR-8 = tested on: OVCAR-8
NCI-H226 = tested on: NCI-H226
MDA-MB-435 = tested on: MDA-MB-435
HCC 2998 = tested on: HCC 2998
IGROV-1 = tested on: IGROV-1
A549 = tested on: A549
MCF7 = tested on: MCF7
MDA-N = tested on: MDA-N
NCI-H23 = tested on: NCI-H23
RXF 393 = tested on: RXF 393
MOLT-4 = tested on: MOLT-4
SK-MEL-28 = tested on: SK-MEL-28
A498 = tested on: A498
Hs-578T = tested on: Hs-578T
HOP-92 = tested on: HOP-92

Compound	GI50 (KM12)	GI50 (SNB-75)	GI50 (Malme-3M)	GI50 (HCT-15) [µM]	GI50 (SK-MEL-5)	GI50 (OVCAR-8)	GI50 (NCI-H226)	GI50 (MDA-MB-435)	GI50 (HCC 2998)	GI50 (IGROV-1)	GI50 (A549)	GI50 (MCF7)	GI50 (MDA-N)	GI50 (NCI-H23)	GI50 (RXF 393)	GI50 (MOLT-4)	GI50 (SK-MEL-28)	GI50 (A498)	GI50 (Hs-578T)	GI50 (HOP-92)
C=CC[C@]1(/C=N/O)CN(S(=O)(=O)CC[Si](C)(C)C)C[C@H]2CC=CC[C@H]21	24.6 µM (inactive)	21 µM (inactive)	20.5 µM (inactive)	38.4	29.4 µM (inactive)	24 µM (inactive)	19.5 µM (inactive)	29.4 µM (inactive)	16.7 µM (inactive)	15.4 µM (inactive)	16 µM (inactive)	17.3 µM (inactive)	20.3 µM (inactive)	27.7 µM (inactive)	13.6 µM (inactive)	16.4 µM (inactive)	22.6 µM (inactive)	17.7 µM (inactive)	–	–
CC1=C[C@H](O)[C@@]2(C)[C@@H]([C@@H]1C)[C@H]1CC[C@@H]3[C@@]4(C)CC[C@H](O)C(C)(C)[C@@H]4CC[C@@]3(C)[C@]1(C)C[C@@H]2O	22.1 µM (inactive)	–	20.6 µM (inactive)	19	16.5 µM (inactive)	20.6 µM (inactive)	23.1 µM (inactive)	20.7 µM (inactive)	18.8 µM (inactive)	20.5 µM (inactive)	12.8 µM (inactive)	–	15.8 µM (inactive)	23.1 µM (inactive)	17.6 µM (inactive)	13.7 µM (inactive)	18.3 µM (inactive)	–	22.3 µM (inactive)	13.8 µM (inactive)
CN1CCC2(CC1)SSC1(CCN(C)CC1)S2	> 100 µM (inactive)	> 100 µM (inactive)	–	> 100	60.5 µM (inactive)	> 100 µM (inactive)	–	> 100 µM (inactive)	–	–	> 100 µM (inactive)	–	> 100 µM (inactive)	> 100 µM (inactive)	–	> 100 µM (inactive)	> 100 µM (inactive)	–	> 100 µM (inactive)	> 100 µM (inactive)
O=c1cc(NNc2ccc(F)cc2)[nH]c(=O)[nH]1	11.7 µM (inactive)	12.7 µM (inactive)	19.8 µM (inactive)	16.1	25.7 µM (inactive)	23.1 µM (inactive)	24.6 µM (inactive)	–	23.4 µM (inactive)	16.6 µM (inactive)	18.3 µM (inactive)	–	16.4 µM (inactive)	29.4 µM (inactive)	15.5 µM (inactive)	19.8 µM (inactive)	18.3 µM (inactive)	35.3 µM (inactive)	28.4 µM (inactive)	–
COc1ccc(-c2c(C(C)=O)c(-c3ccccc3)n(C3OC(CO)C(O)C(O)C3O)c(=S)c2C#N)cc1 (stereo not given)	> 100 µM (inactive)	–	> 100 µM (inactive)	> 100	> 100 µM (inactive)	> 100 µM (inactive)	> 100 µM (inactive)	> 100 µM (inactive)	> 100 µM (inactive)	> 100 µM (inactive)	> 100 µM (inactive)	> 100 µM (inactive)	> 100 µM (inactive)	> 100 µM (inactive)	> 100 µM (inactive)	> 100 µM (inactive)	> 100 µM (inactive)	> 100 µM (inactive)	–	–
C1C2CC3CC1CC(c1nn4c(C56CC7CC(CC(C7)C5)C6)nnc4s1)(C2)C3	> 100 µM (inactive)	> 100 µM (inactive)	> 100 µM (inactive)	> 100	> 100 µM (inactive)	–	> 100 µM (inactive)	> 100 µM (inactive)	> 100 µM (inactive)	> 100 µM (inactive)	> 100 µM (inactive)	–	> 100 µM (inactive)	> 100 µM (inactive)	> 100 µM (inactive)	> 100 µM (inactive)	> 100 µM (inactive)	> 100 µM (inactive)	> 100 µM (inactive)	> 100 µM (inactive)
CCOC(=O)NC(C(=O)OCC)C(F)(F)F (stereo not given)	> 100 µM (inactive)	> 100 µM (inactive)	> 100 µM (inactive)	> 100	> 100 µM (inactive)	> 100 µM (inactive)	–	–	> 100 µM (inactive)	> 100 µM (inactive)	> 100 µM (inactive)	> 100 µM (inactive)	> 100 µM (inactive)	> 100 µM (inactive)	–	93.8 µM (inactive)	> 100 µM (inactive)	–	> 100 µM (inactive)	71.4 µM (inactive)
COC(=O)C1(CCC(C)=O)CCCCCC1=O (stereo not given)	> 100 µM (inactive)	> 100 µM (inactive)	> 100 µM (inactive)	> 100	> 100 µM (inactive)	–	> 100 µM (inactive)	> 100 µM (inactive)	> 100 µM (inactive)	> 100 µM (inactive)	> 100 µM (inactive)	> 100 µM (inactive)	> 100 µM (inactive)	> 100 µM (inactive)	> 100 µM (inactive)	> 100 µM (inactive)	> 100 µM (inactive)	> 100 µM (inactive)	–	> 100 µM (inactive)
CCc1ccccc1NC(=O)C(=O)CC(=O)c1sc(Nc2ccccc2Cl)nc1C	29.6 µM (inactive)	–	–	30.6	17.6 µM (inactive)	35.1 µM (inactive)	29 µM (inactive)	25.6 µM (inactive)	30.1 µM (inactive)	40 µM (inactive)	24 µM (inactive)	18.2 µM (inactive)	28.8 µM (inactive)	30.3 µM (inactive)	24.9 µM (inactive)	14.9 µM (inactive)	36 µM (inactive)	–	46.5 µM (inactive)	–
COC(=O)C1=CC(=O)OC1(OO)c1ccc(Br)cc1 (stereo not given)	> 100 µM (inactive)	> 100 µM (inactive)	> 100 µM (inactive)	46.5	> 100 µM (inactive)	> 100 µM (inactive)	> 100 µM (inactive)	> 100 µM (inactive)	> 100 µM (inactive)	> 100 µM (inactive)	> 100 µM (inactive)	> 100 µM (inactive)	> 100 µM (inactive)	> 100 µM (inactive)	> 100 µM (inactive)	31.8 µM (inactive)	> 100 µM (inactive)	–	–	> 100 µM (inactive)
O=C1C=Cc2c1csc2Br	50.8 µM (inactive)	> 100 µM (inactive)	38.1 µM (inactive)	28.6	69.3 µM (inactive)	38.2 µM (inactive)	–	32.1 µM (inactive)	–	38.3 µM (inactive)	41.5 µM (inactive)	24.9 µM (inactive)	50 µM (inactive)	33 µM (inactive)	71.4 µM (inactive)	21.3 µM (inactive)	63.1 µM (inactive)	–	41.2 µM (inactive)	–
CO[P@]1(=O)O[C@@H](c2ccccc2)[C@H](O)[C@@]1(O)c1ccccc1	> 100 µM (inactive)	> 100 µM (inactive)	> 100 µM (inactive)	> 100	> 100 µM (inactive)	> 100 µM (inactive)	> 100 µM (inactive)	> 100 µM (inactive)	–	> 100 µM (inactive)	> 100 µM (inactive)	> 100 µM (inactive)	> 100 µM (inactive)	> 100 µM (inactive)	> 100 µM (inactive)	> 100 µM (inactive)	> 100 µM (inactive)	> 100 µM (inactive)	–	> 100 µM (inactive)
Nc1nc(SCCc2ccccc2)c2nc[nH]c2n1	> 100 µM (inactive)	33 µM (inactive)	64.9 µM (inactive)	37.2	45.1 µM (inactive)	95.9 µM (inactive)	61.9 µM (inactive)	81.7 µM (inactive)	25.9 µM (inactive)	51.1 µM (inactive)	> 100 µM (inactive)	–	55.7 µM (inactive)	69.5 µM (inactive)	60.4 µM (inactive)	33.6 µM (inactive)	58.9 µM (inactive)	19.1 µM (inactive)	64 µM (inactive)	76.6 µM (inactive)
CC1(C)/C(=N\Nc2ccc([N+](=O)[O-])cc2[N+](=O)[O-])C2CCC1C2 (stereo not given)	30.1 µM (inactive)	3.34 µM (inactive)	> 100 µM (inactive)	> 100	4.2 µM (inactive)	> 100 µM (inactive)	> 100 µM (inactive)	> 100 µM (inactive)	–	> 100 µM (inactive)	> 100 µM (inactive)	> 100 µM (inactive)	> 100 µM (inactive)	> 100 µM (inactive)	–	> 100 µM (inactive)	> 100 µM (inactive)	–	5.41 µM (inactive)	93.8 µM (inactive)
CC1CC/C(=C\c2ccc(Cl)cc2)C2OC(N)=C(C#N)C(c3ccc(Cl)cc3)=C12 (stereo not given)	11.7 µM (inactive)	–	14.5 µM (inactive)	11.1	15.4 µM (inactive)	13.9 µM (inactive)	11 µM (inactive)	18.4 µM (inactive)	–	12.3 µM (inactive)	–	11.4 µM (inactive)	14.7 µM (inactive)	13.6 µM (inactive)	14.6 µM (inactive)	4.37 µM (inactive)	16.1 µM (inactive)	–	15.6 µM (inactive)	–
CCOC(=O)CSc1[nH]c(NC(=S)Nc2ccccc2)c(C(N)=O)c1C(N)=O	> 10 µM (inactive)	> 10 µM (inactive)	> 10 µM (inactive)	> 10	> 10 µM (inactive)	> 10 µM (inactive)	–	> 10 µM (inactive)	6.28 µM (inactive)	> 10 µM (inactive)	> 10 µM (inactive)	> 10 µM (inactive)	> 10 µM (inactive)	> 10 µM (inactive)	> 10 µM (inactive)	6.21 µM (inactive)	> 10 µM (inactive)	–	–	> 10 µM (inactive)
